# Measurements published in ChEMBL document CHEMBL4311992, “Discovery of 3-(((9H-purin-6-yl)amino)methyl)-4,6-dimethylpyridin-2(1H)-one derivatives as novel tubulin polymerization inhibitors for treatment of cancer” (Eur J Med Chem, 2019).
# Active and inactive are the calls of the source. No cut-off for these calls is given here.
# How the values were obtained:
# HCT-116 [1] = assay: Induction of apoptosis in human HCT116 cells assessed as viable cells at 50 nM measured after 48 hrs by Annexin V-FITC/propidium iodide staining-based flow cytometry (reference value: 94.5%); format: functional; conditions: HCT-116, 48 h, read-out: Activity
# [2] = biological target: Serine/threonine-protein kinase Nek3 (Homo sapiens) (UniProt P51956); assay: Inhibition of recombinant full-length human NEK3 assessed as residual activity at 10 uM using myelin basic protein as substrate measured after 40 mins in presence of [gamma33P]ATP by scintillation counting method
# Sequence of Serine/threonine-protein kinase Nek3 (Homo sapiens) (P51956 whole entry): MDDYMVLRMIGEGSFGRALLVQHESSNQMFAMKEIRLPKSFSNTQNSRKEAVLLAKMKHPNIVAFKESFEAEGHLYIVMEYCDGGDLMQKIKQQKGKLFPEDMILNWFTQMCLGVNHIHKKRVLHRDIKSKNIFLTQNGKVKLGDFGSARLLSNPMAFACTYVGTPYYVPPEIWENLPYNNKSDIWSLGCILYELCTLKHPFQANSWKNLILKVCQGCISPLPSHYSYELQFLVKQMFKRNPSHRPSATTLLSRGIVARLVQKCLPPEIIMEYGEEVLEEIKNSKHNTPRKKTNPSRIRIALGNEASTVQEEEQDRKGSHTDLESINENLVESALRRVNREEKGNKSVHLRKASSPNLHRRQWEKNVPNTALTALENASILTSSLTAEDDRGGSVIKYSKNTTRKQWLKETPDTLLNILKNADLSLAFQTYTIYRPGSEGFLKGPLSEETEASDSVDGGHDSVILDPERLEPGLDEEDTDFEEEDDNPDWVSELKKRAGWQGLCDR
# [3] = biological target: Serine/threonine-protein kinase 38-like (Homo sapiens) (UniProt Q9Y2H1); assay: Inhibition of recombinant human NDR2 (83 to end residues) assessed as residual activity at 10 uM using RSRSRSRSRSRSRSR as substrate measured after 40 mins in presence of [gamma33P]ATP by scintillation counting method
# [4] = biological target: Insulin receptor (Homo sapiens) (UniProt P06213); assay: Inhibition of recombinant human activated IR (1005 to 1310 residues) assessed as residual activity at 10 uM using KKKSPGEYVNIEFG as substrate measured after 40 mins in presence of [gamma33P]ATP by scintillation counting method
# Sequence of Insulin receptor (Homo sapiens) (P06213 28-758 limits assumed): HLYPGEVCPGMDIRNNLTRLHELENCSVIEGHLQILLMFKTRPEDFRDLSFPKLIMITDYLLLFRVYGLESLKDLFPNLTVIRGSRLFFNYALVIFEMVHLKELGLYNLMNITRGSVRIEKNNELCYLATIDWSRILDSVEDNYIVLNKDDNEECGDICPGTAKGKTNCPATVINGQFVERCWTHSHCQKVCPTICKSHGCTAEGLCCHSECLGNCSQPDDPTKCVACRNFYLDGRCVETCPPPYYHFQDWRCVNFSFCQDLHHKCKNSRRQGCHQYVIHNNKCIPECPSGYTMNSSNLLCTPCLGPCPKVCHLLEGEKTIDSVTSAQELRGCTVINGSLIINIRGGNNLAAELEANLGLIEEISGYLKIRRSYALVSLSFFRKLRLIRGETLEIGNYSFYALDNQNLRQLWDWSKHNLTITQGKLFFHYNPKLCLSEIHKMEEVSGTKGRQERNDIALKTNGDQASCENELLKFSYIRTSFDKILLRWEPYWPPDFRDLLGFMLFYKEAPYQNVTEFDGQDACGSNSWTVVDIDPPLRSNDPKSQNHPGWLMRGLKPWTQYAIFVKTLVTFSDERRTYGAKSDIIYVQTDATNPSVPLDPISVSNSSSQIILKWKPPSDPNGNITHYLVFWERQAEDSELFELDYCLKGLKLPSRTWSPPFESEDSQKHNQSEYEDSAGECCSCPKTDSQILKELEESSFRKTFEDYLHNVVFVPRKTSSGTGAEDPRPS
# Sequence of Insulin receptor (Homo sapiens) (P06213 763-1382 limits assumed): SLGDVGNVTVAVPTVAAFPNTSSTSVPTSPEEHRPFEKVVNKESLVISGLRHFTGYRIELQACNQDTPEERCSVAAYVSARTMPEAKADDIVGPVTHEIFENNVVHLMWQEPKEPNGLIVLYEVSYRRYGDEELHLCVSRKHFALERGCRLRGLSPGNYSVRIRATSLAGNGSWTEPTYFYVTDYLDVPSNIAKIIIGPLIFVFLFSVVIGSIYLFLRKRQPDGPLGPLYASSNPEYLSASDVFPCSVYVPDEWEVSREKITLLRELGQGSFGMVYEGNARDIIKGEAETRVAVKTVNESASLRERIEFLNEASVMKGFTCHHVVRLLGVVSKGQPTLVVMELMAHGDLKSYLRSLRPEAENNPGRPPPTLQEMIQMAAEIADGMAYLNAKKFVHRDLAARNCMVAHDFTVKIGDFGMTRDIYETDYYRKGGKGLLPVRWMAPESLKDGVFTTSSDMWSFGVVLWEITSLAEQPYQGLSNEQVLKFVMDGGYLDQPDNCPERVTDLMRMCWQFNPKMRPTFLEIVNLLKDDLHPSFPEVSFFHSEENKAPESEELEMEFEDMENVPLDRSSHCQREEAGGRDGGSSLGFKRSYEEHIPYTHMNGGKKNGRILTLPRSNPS
# [5] = biological target: Testis-specific serine/threonine-protein kinase 1 (Homo sapiens) (UniProt Q9BXA7); assay: Inhibition of recombinant full-length human TSSK1 assessed as residual activity at 10 uM using KKKVSRSGLYRSPSMPENLNRPR as substrate measured after 120 mins in presence of [gamma33P]ATP by scintillation counting method
# Sequence of Testis-specific serine/threonine-protein kinase 1 (Homo sapiens) (Q9BXA7 whole entry): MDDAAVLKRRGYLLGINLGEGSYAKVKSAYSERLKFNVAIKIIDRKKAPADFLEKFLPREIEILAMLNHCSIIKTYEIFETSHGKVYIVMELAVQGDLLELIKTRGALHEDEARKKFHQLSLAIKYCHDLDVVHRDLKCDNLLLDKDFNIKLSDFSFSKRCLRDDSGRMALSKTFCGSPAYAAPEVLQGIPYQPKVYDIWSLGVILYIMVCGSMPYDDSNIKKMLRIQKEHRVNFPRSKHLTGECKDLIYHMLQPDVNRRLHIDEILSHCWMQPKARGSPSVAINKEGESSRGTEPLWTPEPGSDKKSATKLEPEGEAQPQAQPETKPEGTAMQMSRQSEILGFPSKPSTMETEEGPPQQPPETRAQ
# [6] = biological target: Testis-specific serine/threonine-protein kinase 3 (Homo sapiens) (UniProt Q96PN8); assay: Inhibition of recombinant full-length human TSSK3 assessed as residual activity at 10 uM using AMARAASAAALARRR as substrate measured after 40 mins in presence of [gamma33P]ATP by scintillation counting method
# Sequence of Testis-specific serine/threonine-protein kinase 3 (Homo sapiens) (Q96PN8 whole entry, the tested form may be a part): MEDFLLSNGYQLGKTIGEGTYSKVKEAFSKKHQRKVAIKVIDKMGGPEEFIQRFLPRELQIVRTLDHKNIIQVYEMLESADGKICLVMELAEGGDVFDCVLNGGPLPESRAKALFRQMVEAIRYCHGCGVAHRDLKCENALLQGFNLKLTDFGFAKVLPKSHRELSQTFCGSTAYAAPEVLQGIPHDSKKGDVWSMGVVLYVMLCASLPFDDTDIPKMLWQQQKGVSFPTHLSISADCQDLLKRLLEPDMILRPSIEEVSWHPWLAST
# Mus musculus = organism: Mus musculus; assay: Inhibition of recombinant full-length mouse PI3K p110alpha/p65alpha (1 to 571 residues) assessed as residual activity at 10 uM using phosphatidylinositol-4, 5-bisphosphate as substrate measured after 40 mins by HTRF assay
# [7] = biological target: Ephrin type-B receptor 4 (Homo sapiens) (UniProt P54760); assay: Inhibition of recombinant human EphB4 (561 to end residues) assessed as residual activity at 10 uM using poly (Glu, Tyr) 4:1 as substrate measured after 40 mins in presence of [gamma33P]ATP by scintillation counting method
# [8] = biological target: Ephrin type-B receptor 1 (Homo sapiens) (UniProt P54762); assay: Inhibition of recombinant human EphB1 (564 to end residues) assessed as residual activity at 10 uM using KVEKIGEGTYGVVYK as substrate measured after 40 mins in presence of [gamma33P]ATP by scintillation counting method
# [9] = test system: Tyrosine-protein kinase ABL1 (Homo sapiens), P00519 [T315I]; assay: Inhibition of recombinant human ABL T315I mutant (27 to end residues) assessed as residual activity at 10 uM using EAIYAAPFAKKK as substrate measured after 40 mins in presence of [gamma33P]ATP by scintillation counting method
# [10] = biological target: AP2-associated protein kinase 1 (Homo sapiens) (UniProt Q2M2I8); assay: Inhibition of human AAK1 assessed as residual activity at 10 uM using peptide substrate measured after 120 mins in presence of [gamma33P]ATP by scintillation counting method
# [11] = biological target: Calcium/calmodulin-dependent protein kinase type II subunit gamma (Homo sapiens) (UniProt Q13555); assay: Inhibition of recombinant full-length human CaMK2gamma (1 to 330 residues) assessed as residual activity at 10 uM using calmodulin as substrate measured after 40 mins in presence of [gamma33P]ATP by scintillation counting method
# [12] = biological target: Cyclin-dependent kinase 1/cyclin B1 (Homo sapiens) (UniProt P06493+P14635); assay: Inhibition of recombinant full-length human CDK1/cyclinB assessed as residual activity at 10 uM using histone H1 as substrate measured after 40 mins in presence of [gamma33P]ATP by scintillation counting method; format: protein-complex assay
# Sequence of Cyclin-dependent kinase 1/cyclin B1 (Homo sapiens) (P06493 whole entry, looked up): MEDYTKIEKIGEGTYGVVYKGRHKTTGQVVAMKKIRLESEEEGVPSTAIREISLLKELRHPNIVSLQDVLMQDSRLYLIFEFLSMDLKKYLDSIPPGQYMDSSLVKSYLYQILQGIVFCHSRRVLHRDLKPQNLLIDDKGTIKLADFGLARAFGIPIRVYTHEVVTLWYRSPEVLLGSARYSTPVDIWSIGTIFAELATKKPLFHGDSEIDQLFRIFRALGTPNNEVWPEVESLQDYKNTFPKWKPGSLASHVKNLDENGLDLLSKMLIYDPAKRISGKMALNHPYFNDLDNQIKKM
# Sequence of Cyclin-dependent kinase 1/cyclin B1 (Homo sapiens) (P14635 whole entry, looked up): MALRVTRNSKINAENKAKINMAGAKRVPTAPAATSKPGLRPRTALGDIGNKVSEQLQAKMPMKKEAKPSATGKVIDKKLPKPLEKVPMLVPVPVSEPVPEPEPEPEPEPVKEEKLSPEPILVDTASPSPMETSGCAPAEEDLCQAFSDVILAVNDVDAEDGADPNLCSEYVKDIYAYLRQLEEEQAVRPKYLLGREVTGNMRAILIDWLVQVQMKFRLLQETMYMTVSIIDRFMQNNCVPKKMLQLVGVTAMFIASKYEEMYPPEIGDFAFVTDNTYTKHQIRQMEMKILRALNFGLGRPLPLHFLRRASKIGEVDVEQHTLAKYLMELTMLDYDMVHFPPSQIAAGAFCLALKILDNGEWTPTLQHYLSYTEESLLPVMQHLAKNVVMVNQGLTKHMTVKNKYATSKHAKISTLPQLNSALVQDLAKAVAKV
# [13] = biological target: CDK2/Cyclin A2 (Homo sapiens) (UniProt P24941+P20248); assay: Inhibition of recombinant full-length human CDK2/cyclinA assessed as residual activity at 10 uM using histone H1 as substrate measured after 40 mins in presence of [gamma33P]ATP by scintillation counting method; format: protein-complex assay
# SW-620 = assay: Induction of apoptosis in human SW620 cells assessed as increase in cleaved caspase9 expression measured after 48 hrs by Western blot analysis; format: functional, cell-based
# HCT-116 [14] = assay: Antitumor activity against human HCT116 cells xenografted in nude BALB/c mouse assessed as reduction in tumor weight at 40 mg/kg, po administered once daily for 4 weeks measured every 3 days during compound dosing; format: functional, organism-based
# [15] = biological target: Serine/threonine-protein kinase Chk2 (Homo sapiens) (UniProt O96017); assay: Inhibition of recombinant human CHK2 (5 to end residues) assessed as residual activity at 10 uM using KKKVSRSGLYRSPSMPENLNRPR as substrate measured after 40 mins in presence of [gamma33P]ATP by scintillation counting method
# [16] = biological target: Ephrin type-A receptor 2 (Homo sapiens) (UniProt P29317); assay: Inhibition of recombinant human EphA2 (596 to 900 residues) assessed as residual activity at 10 uM using poly(Glu, Tyr) 4:1 as substrate measured after 40 mins in presence of [gamma33P]ATP by scintillation counting method
# Sequence of Ephrin type-A receptor 2 (Homo sapiens) (P29317 whole entry, the tested form may be a part): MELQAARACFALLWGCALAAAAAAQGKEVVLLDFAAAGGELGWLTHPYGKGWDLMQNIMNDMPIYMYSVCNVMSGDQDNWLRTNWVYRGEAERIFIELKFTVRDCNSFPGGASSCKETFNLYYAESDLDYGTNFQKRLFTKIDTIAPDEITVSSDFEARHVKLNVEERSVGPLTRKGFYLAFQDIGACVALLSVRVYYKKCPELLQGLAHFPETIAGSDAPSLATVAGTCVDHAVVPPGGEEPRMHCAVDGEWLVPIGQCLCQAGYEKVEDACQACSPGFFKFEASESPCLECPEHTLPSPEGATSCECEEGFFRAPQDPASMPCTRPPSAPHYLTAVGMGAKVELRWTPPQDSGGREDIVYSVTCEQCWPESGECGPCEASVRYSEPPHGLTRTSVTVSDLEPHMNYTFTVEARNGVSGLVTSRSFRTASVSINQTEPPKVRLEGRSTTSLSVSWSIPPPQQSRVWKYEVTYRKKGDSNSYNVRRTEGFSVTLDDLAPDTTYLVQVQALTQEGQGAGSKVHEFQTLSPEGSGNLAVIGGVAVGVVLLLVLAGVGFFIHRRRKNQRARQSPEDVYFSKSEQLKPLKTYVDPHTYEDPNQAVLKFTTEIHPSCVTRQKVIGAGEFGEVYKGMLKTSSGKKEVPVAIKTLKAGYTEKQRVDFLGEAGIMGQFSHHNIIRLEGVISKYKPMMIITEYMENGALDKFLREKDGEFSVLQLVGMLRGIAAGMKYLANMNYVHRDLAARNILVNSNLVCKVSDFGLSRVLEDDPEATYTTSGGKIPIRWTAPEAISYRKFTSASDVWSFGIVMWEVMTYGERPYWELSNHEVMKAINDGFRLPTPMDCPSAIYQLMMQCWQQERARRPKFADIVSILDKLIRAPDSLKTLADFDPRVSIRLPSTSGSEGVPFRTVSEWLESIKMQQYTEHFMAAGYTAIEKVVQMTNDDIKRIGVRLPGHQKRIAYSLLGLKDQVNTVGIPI
# [17] = biological target: G protein-coupled receptor kinase 3 (Homo sapiens) (UniProt P35626); assay: Inhibition of recombinant full-length human GRK5 assessed as residual activity at 10 uM using casein as substrate measured after 40 mins in presence of [gamma33P]ATP by scintillation counting method
# [18] = biological target: Serine/threonine-protein kinase MARK2 (Homo sapiens) (UniProt Q7KZI7); assay: Inhibition of recombinant full-length human PAR1Balpha assessed as residual activity at 10 uM using KKKVSRSGLYRSPSMPENLNRPR as substrate measured after 40 mins in presence of [gamma33P]ATP by scintillation counting method
# Sequence of Serine/threonine-protein kinase MARK2 (Homo sapiens) (Q7KZI7 whole entry): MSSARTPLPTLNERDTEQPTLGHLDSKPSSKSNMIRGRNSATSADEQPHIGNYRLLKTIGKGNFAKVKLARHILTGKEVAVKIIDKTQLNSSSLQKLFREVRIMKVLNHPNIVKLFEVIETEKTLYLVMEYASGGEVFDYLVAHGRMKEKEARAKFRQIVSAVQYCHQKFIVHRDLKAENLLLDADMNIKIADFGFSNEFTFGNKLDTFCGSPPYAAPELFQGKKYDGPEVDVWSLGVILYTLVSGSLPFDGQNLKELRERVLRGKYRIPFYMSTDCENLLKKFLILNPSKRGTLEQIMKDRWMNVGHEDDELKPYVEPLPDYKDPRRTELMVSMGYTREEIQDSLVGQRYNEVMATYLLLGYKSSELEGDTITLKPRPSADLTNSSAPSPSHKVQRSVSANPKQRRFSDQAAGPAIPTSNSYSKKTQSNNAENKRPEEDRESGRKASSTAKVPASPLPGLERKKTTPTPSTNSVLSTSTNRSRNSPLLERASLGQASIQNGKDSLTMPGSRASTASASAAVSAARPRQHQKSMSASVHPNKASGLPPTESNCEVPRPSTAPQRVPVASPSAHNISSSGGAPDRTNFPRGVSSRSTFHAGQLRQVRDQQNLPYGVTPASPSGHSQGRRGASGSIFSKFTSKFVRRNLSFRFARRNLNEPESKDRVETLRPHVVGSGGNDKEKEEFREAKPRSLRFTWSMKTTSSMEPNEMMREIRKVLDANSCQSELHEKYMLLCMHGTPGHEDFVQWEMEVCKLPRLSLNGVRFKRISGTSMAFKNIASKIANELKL
# [19] = test system: Proto-oncogene tyrosine-protein kinase receptor Ret (Homo sapiens), P07949 [V804L]; assay: Inhibition of human Ret V804L mutant (658 to end residues) using KKKSPGEYVNIEFG as substrate measured after 40 mins in presence of [gamma33P]ATP by scintillation counting method; design: scale not given: the % may be the effect or the level left
# [20] = biological target: Mitogen-activated protein kinase kinase kinase 7 (Homo sapiens) (UniProt O43318); assay: Inhibition of human TAK1 (1 to 303 residues) using casein as substrate measured after 40 mins in presence of [gamma33P]ATP by scintillation counting method; design: scale not given: the % may be the effect or the level left
# [21] = biological target: Serine/threonine-protein kinase WNK4 (Homo sapiens) (UniProt Q96J92); assay: Inhibition of human WNK4 using myelin basic protein as substrate measured after 120 mins in presence of [gamma33P]ATP by scintillation counting method; design: scale not given: the % may be the effect or the level left
# Tubulin (Sus scrofa) = Tubulin (Sus scrofa) (UniProt P02554+P02550); assay: Inhibition of porcine brain tubulin polymerization at 0.05 to 30 uM by fluorescence assay
smiles,measurement,setting,value
Cc1cc(C)c(CNc2nc(Cl)nc3c2ncn3C2CCCC2)c(=O)[nH]1,viability at 0.05 µM,HCT-116 [1],42.6%
same,Activity,[2],102%
same,Activity,[3],108%
same,Activity,[4],101%
same,Activity,[5],110%
same,Activity,[6],124%
same,Activity,Mus musculus,104%
same,Activity,[7],102%
same,Activity,[8],104%
same,Activity,[9],108%
same,Activity,[10],105%
same,Activity,[11],99.5%
same,Activity,[12],102%
same,Activity,[13],110%
same,Activity,SW-620,Dose-dependent effect
same,Activity,HCT-116 [14],Active
same,Activity,[15],105%
same,Activity,[16],91%
same,Activity,[17],105%
same,Activity,[18],95.5%
same,Activity,[19],106%
same,Activity,[20],98.5%
same,Activity,[21],98.5%
same,inhibition,Tubulin (Sus scrofa),Active
